Experimental findings from PMC7006651, “Effect of 6-Benzoyl-benzothiazol-2-one scaffold on the pharmacological profile of α-alkoxyphenylpropionic acid derived PPAR agonists” (Journal of Enzyme Inhibition and Medicinal Chemistry, 2020) are described below.

Where two headings read alike, the source gives them in different places.

Series [1] has as its target T1, human PPARγ (Homo sapiens, UniProt P37231).
T1 sequence (P37231 235-505 limits assumed): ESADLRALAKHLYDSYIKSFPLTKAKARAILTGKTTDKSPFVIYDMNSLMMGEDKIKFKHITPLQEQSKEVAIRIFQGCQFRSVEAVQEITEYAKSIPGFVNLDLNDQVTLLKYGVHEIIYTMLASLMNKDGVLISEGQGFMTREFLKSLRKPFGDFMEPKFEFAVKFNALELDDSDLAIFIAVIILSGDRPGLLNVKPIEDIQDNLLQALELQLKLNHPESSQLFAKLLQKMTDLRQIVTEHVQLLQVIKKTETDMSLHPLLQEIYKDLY
Kind of series: Membrane-bound PPARγ binding assay ([3H]rosiglitazone competition, filtration). Particulars: competition with [3H]rosiglitazone (4 nM), 180 min at 4 °C; read-out: Ki (nM), hPPARγ binding affinity. As to the method:
The membrane-associated PPARγ was used as the biological source as previously described. Binding buffer consisted of 10 mM Tris/HCl, pH 8.2, containing 50 mM KCl and 1 mM dithiothreitol. […] Radioactivity was measured in a TopCount apparatus (Packard).

Series [2] concerns the target T2, human PPARα (Homo sapiens, UniProt Q07869).
T2 construct: expressed in transfected cells; host or cells: Cos-7
T2 sequence (Q07869 239-466 limits assumed): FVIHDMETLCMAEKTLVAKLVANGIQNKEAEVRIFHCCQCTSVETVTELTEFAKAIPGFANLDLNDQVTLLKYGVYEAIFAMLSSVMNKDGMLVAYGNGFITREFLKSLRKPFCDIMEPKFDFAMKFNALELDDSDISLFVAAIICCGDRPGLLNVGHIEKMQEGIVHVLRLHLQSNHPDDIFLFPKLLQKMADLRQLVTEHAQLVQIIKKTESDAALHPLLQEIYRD
Kind of series: Gene reporter (transactivation) assay, Cos-7 cells transfected with pGal4-hPPARα.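 As to all read-outs here: luciferase signal from a Gal4-driven reporter normalised to cotransfected β-galactosidase activity, cells exposed to rising compound concentrations with DMSO vehicle as control.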 The class given is cell-based. As to conditions: for Emax: COS-7, 24 h, read-out: hPPAR gene reporter αGal4 (%); for Emax / hPPAR gene reporter αGal4 (%): Emax relative to maximum activation with WY14643 (10 µM) = 100%; for EC50: GAL4 chimeric hPPARα, read-out: hPPAR gene reporter αEC50; for EC50 / hPPAR gene reporter αGal4 (%): 24 h.
Procedure: (§1) Cos-7 cells were transiently transfected with luciferase reporter plasmid (pG5-TK-pGL3) in the presence of pGal4-hPPARα or pGal4-hPPARγ (these vectors express chimeric proteins containing the Gal4 DNA-binding domain fused to the human PPARα or PPARγ ligand binding domain coding sequence) expression vector. […] Cells were transfected in OptiMEM without FCS for 3 h at 37°, using polyethylenimine (PEI), with reporter and expression plasmids, as stated in figure’s legend. The plasmid pBluescript (Stratagene, La Jolla, CA) was used as carrier DNA to set the final amount of DNA to 5.5 µg/dish. The pCMV- ß-galactosidase expression plasmid was cotransfected as a control for transfection efficiency. […] After 16 h, cells were trypsinised and seeded in 96-well plates at the density of 2 × 10^4 cells/well and incubated for 6 h in 10% FCS containing DMEM. Cells were then incubated for 24 h in DMEM containing 0.2% FCS and increasing concentrations of the compound tested or vehicle (DMSO). At the end of the experiment, cells were washed once with ice-cold PBS and the luciferase and the β–galactosidase assays were performed as described previously[20]. Cells were incubated 24 h in the presence of indicated concentrations of compound. Luciferase activity was measured and normalised to internal control β-galactosidase activity. […] EC50 were estimated using Prism software (GraphPad). All transfection experiments were performed at least three times.

Series [3] addresses T3, human PPARγ (Homo sapiens, UniProt P37231).
T3 construct: expressed in transfected cells; host or cells: Cos-7
T3 sequence (P37231 238-503 limits assumed): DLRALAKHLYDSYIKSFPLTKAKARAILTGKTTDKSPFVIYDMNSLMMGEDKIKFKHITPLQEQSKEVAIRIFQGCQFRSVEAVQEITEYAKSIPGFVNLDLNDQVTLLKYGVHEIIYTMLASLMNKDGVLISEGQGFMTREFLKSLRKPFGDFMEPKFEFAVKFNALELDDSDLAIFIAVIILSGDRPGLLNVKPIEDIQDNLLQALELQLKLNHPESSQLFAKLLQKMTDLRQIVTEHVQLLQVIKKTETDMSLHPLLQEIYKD
Nature of the series: Gene reporter (transactivation) assay, Cos-7 cells transfected with pGal4-hPPARγ.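 As to all read-outs here: luciferase reporter (pG5-TK) activity normalised to cotransfected β-galactosidase, cells exposed to increasing compound concentrations in DMEM with 0.2% FCS, DMSO vehicle as control.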 As to conditions: for EC50: GAL4 chimeric hPPARγ, read-out: hPPAR gene reporter γEC50; for Emax: COS-7, 24 h, read-out: hPPAR gene reporter γGal4 (%). The class given is cell-based.
Procedure: as §1

Series [4] relates to ob/ob mice. Nature of the series: In vivo ob/ob mice: glycaemia, triglyceridemia, insulinemia, body weight.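 As to all read-outs here: male ob/ob mice aged 10–12 weeks, given the compound once daily by oral gavage as a 1% hydroxyethylcellulose suspension, 8–12 animals per group.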 As to conditions: oral, 4 days, synthesised compounds 8.4 µMkg^−1, references 3 mgkg^−1; for ΔBW (body weight variation between day 0 and day 4): expressed in % of rosiglitazone in the same study (= 100%), ob/ob mice; for Change (%) Gly (glycemia) / Change (%) Ins (insulin) / Change (%) TG (triglycerides): percent change versus control, ob/ob mice at day 4.
Procedure: The glucose- and triglyceride-lowering activities of the compounds prepared were then tested using 10–12-week-old male ob/ob mice. […] Mice had access to filtered (0.22 mm) tap water ad libitum and irradiated pelleted laboratory chow (transbreed, Special Diet Services, England) throughout the study. Compounds were prepared as a suspension in 1% hydroxyethylcellulose (HEC) for oral administration (10 mLkg^−1). The mice (n = 8–12 per group) were dosed by gavage daily between 15:00 and 17:00 for 4 days. Randomisation was performed based on glycaemia values. The body weight gain (DBW in grams) of the animals was determined by measuring the difference between body weight at the beginning and end of the study for each mouse. At day 5 between 9:00 and 11:00 the mice were weighed, and blood samples were collected into heparin-containing tubes by retro-orbital puncture (500 mL per mouse). […] Plasma samples were prepared by centrifugation (2000 g for 10 min), and stored at −20 °C. For triglycerides and insulin determination, the percent change in plasma level in the treated group was calculated relative to the mean plasma level in the vehicle-treated group. ANOVA, followed by Dunnett’s comparison test (one-tailed) was used to estimate significant differences between the plasma glycaemia, triglycerides, insulin, and DBW values between the control group and the individual compound-treated groups.
As a side effect index, body weight was also measured daily, and body weight variation was calculated as a percentage of the difference in body weight between days 4 and 0.

The mark [5] stands for this setting: Emax relative to maximum activation with rosiglitazone (1 μM) = 100%, Cos-7 cells, 24 h.

In turn, `CCOC(Cc1ccc(OCCn2c(=O)sc3ccc(C(=O)c4ccccc4)cc32)cc1)C(=O)O` (centres unmarked) [Compound 31, 3-{4-[2–(5-benzoyl-2-oxo-benzothiazol-3-yl)-ethoxy]-phenyl}-2-ethoxypropionic acid] registered a melting point of 49 to 51 °C. Besides, the Ki in series [1] was 8 nM. In addition, in series [2], the Emax was at least 80% and the EC50 was 0.256 µM. Also, in series [3] (Cos-7 cells, 24 h), the EC50 is 0.061 µM.
`CCOC(Cc1ccc(OCCN2C(=O)CSc3ccc(C(=O)c4ccccc4)cc32)cc1)C(=O)O` (centres unmarked) [Compound 33, 3-{4-[2–(6-benzoyl-3-oxo-benzo[1, 4]thiazin-4-yl)-ethoxy]-phenyl}-2-ethoxypropionic acid] had a melting point of 52 to 54 °C. Besides, the Ki in series [1] worked out at 220 nM. Also, in series [2], the Emax is at most 20% and the EC50 came out at 10 µM. In addition, the Emax in series [3] (setting [5]) was at most 70%. For the same compound, the EC50 in series [3] (Cos-7 cells, 24 h) stood at 0.219 µM.
As to `CCOC(Cc1ccc(OCCN2C(=O)CSc3cc(C(=O)c4ccccc4)ccc32)cc1)C(=O)O` (centres unmarked) [Compound 34, 3-{4-[2–(7-benzoyl-3-oxo-benzo[1, 4]thiazin-4-yl)-ethoxy]-phenyl}-2-ethoxypropionic acid], the melting point was in the range of 58 to 60 °C. The Ki in series [1] is 4 nM. In addition, in series [2], the Emax is 116% and the EC50 was 2.05 µM. Moreover, the Emax in series [3] (setting [5]) stood at 97%. The EC50 in series [3] (Cos-7 cells, 24 h) came out at 0.037 µM.
For the compound `CCOC(Cc1ccc(OCCN2C(=O)C(F)(F)c3cc(C(=O)c4ccccc4)ccc32)cc1)C(=O)O` (centres unmarked) [Compound 38, 3-{4-[2–(5-benzoyl-3,3-difluoro-2-oxo-2,3-dihydroindol-1-yl)ethoxy]phenyl}-2-ethoxy-propionic acid], the Ki in series [1] amounted to 4 nM. Besides, the Emax was 89% in series [2] and at most 75% in series [3] (setting [5]). In series [3] (Cos-7 cells, 24 h), the EC50 was 0.005 µM.
In the case of `CON=C(c1ccccc1)c1ccc2c(c1)sc(=O)n2CCOc1ccc(C[C@H](OCC(F)(F)F)C(=O)O)cc1` [Compound 44b, (S)-3-{4-[2–(6-[(E)-methoxyimino-phenyl-methyl]-2-oxo-benzothiazol-3-yl)-ethoxy]-phenyl}-2–(2,2,2-trifluoro)ethoxypropionic acid], in series [1], the Ki was 3 nM. Also, in series [2], the “hPPAR gene reporter αGal4 (%)” value is listed as 59% and the EC50 was determined as 0.525 µM. The “hPPAR gene reporter γGal4 (%)” value in series [3] (setting [5]) was determined as 150%. Further, in series [3] (Cos-7 cells, 24 h), the EC50 worked out at 0.0009 µM. In series [4], the “ΔBW (body weight variation between day 0 and day 4)” value (“ΔBW” below) is given as −17%; the “Change (%) Gly (glycemia)” value was −36%; the “Change (%) Ins (insulin)” value was −89%; the “Change (%) TG (triglycerides)” value was −69%.
For `CON=C(c1ccccc1)c1ccc2c(c1)sc(=O)n2CCOc1ccc(C[C@@H](OCC(F)(F)F)C(=O)O)cc1` [Compound 46b, (R)-3-{4-[2–(6-[(E)-methoxyimino-phenyl-methyl]-2-oxo-benzothiazol-3-yl)-ethoxy]-phenyl}-2–(2,2,2-trifluoro)ethoxypropionic acid], the Ki in series [1] amounted to 33 nM. For the same compound, the “hPPAR gene reporter αGal4 (%)” value in series [2] is given as 117%. In addition, the EC50 in series [2] is 1.66 µM; in series [3] (Cos-7 cells, 24 h), 0.009 µM. In addition, in series [3] (setting [5]), the “hPPAR gene reporter γGal4 (%)” value is listed as 116%.
Turning to `Cc1cccc(Nc2cc(Cl)nc(SCC(=O)O)n2)c1C` [WY14643, reference compound], the “hPPAR gene reporter αGal4 (%)” value in series [2] was found to be 100%.
Regarding `COc1ccc(OC(=O)N(CC(=O)O)Cc2ccc(OCCc3nc(-c4ccccc4)oc3C)cc2)cc1` [mura, Muraglitazar, reference compound], in series [2], the Emax is 84% and the EC50 was 0.595 µM. In addition, the Emax in series [3] was 128%. Moreover, in series [4], the “ΔBW” value was found to be 206%; the “Change (%) Gly (glycemia)” value is −46%; the “Change (%) Ins (insulin)” value is −46%; the “Change (%) TG (triglycerides)” value is −34%.
With `CN(CCOc1ccc(CC2SC(=O)NC2=O)cc1)c1ccccn1` (centres unmarked) [rosi, Rosiglitazone, reference compound], in series [4], the “ΔBW” value is 100%; the “Change (%) Gly (glycemia)” value was −57%; the “Change (%) Ins (insulin)” value is −73%; the “Change (%) TG (triglycerides)” value is recorded as −46%.
